Experimental data from patent publication US20110002953A1, “USE OF IMMIDAZOQUINOLINAMINES AS ADJUVANTS IN DNA VACCINATION” (priority 2000, published 2011).

Legend:
[1] = system: IFN-γ-producing (Th1) cells; experiment: IFN-γ ELISPOT on lymph node cells after pVAC1.OVA vaccination, adoptive transfer model; assay type: in vivo, Balb/c mice; details: for IFN-γ producing cells, in words: pVAC1.OVA + adjuvant versus plasmid without adjuvant
Procedure: (§1) Splenocytes were prepared as in example 1 above.
(§2) Th CD4+ subsets were assessed using the adoptive transfer model (example 2, above). IFN-γ-producing (Th1) and IL-4-producing (Th2) cells were assayed by ELISPOT (example 1, above). […] No cytokine producing cells were detected in empty vector immunised controls.
(§3) Cartridges were prepared using the pVAC1.OVA plasmid, immunisations and T cell responses were as described in example 2.

[2] = system: IL-4-producing (Th2) cells; experiment: IL-4 ELISPOT on lymph node cells after pVAC1.OVA vaccination, adoptive transfer model; assay type: in vivo, Balb/c mice; details: for IL-4 producing cells, in words: pVAC1.OVA + adjuvant versus plasmid without adjuvant
Procedure: as §1, §2, §3

[3] = system: cytotoxic T cell response; experiment: CD8+ T cell-restricted IFN-γ ELISPOT of splenocytes after particle mediated vaccination with pVAC1.PR (influenza nucleoprotein plasmid); assay type: in vivo, C57B1/6 mice
Procedure: The cytotoxic T cell response was assessed by CD8+ T cell-restricted IFN-γ ELISPOT assay of splenocytes collected one week later. Mice were killed by cervical dislocation and spleens were collected into ice-cold PBS. Splenocytes were teased out into phosphate buffered saline (PBS) followed by lysis of red blood cells (1 minute in buffer consisting of 155 mM NH4Cl, 10 mM KHCO3, 0.1 mM EDTA). After two washes in PBS to remove particulate matter the single cell suspension was aliquoted into ELISPOT plates previously coated with capture IFN-γ antibody and stimulated with CD8-restricted cognate peptide. After overnight culture, IFN-γ producing cells were visualised by application of anti-murine IFN-γ-biotin labelled antibody (Pharmingen) followed by streptavidin—conjugated alkaline phosphatase and quantitated using image analysis.

[4] = system: cytotoxic T cells (HIV antigens Gag and Nef); experiment: IFN-γ ELISPOT of splenocytes with CD8-restricted Gag and Nef peptides after prime/boost vaccination with WRG7077.Gag/Nef; assay type: in vivo, Balb/c mice
Procedure: Here mice received a primary immunisation followed by a boost immunisation 42 days later.
IFN-γ ELISPOT assays were performed as described (example 1), using CD8-restricted cognate peptides for the Gag and Nef antigens to stimulate splenocytes collected 5 days after the boost immunisation.
Cartridges were prepared using the WRG7077Gag/Nef plasmid, PMID immunisations and T cell responses were as described in example 5. […] Spleens were collected for analysis 6 and 11 days after the boost immunisation.

[5] = system: EG7-OVA cells; experiment: Tumour challenge with EG7-OVA cells after immunisation with pVAC1.OVA; assay type: in vivo, mice
[6] = imiquimod 100 mg/kg s.c. at boost only, splenocytes 5 days after boost, versus plasmid with vehicle

CC(C)(O)Cn1cnc2c(N)nc3ccccc3c21 [1-(2-hydroxy-2-methylpropyl)-1H-imidazo[4,5-c]quinolin-4-amine]
IFN-γ producing cells, in words [1]: increased | IL-4 producing cells, in words [2]: increased

Cc1nc2c(N)nc3ccccc3c2n1CC(C)(C)O [1-(2-hydroxy-2-methylpropyl)-2-methyl-1H-imidazo[4,5-c]quinolin-4-amine]
IFN-γ producing cells, in words [1]: increased | IL-4 producing cells, in words [2]: increased | increase in IL-4 producing CD4 T cells ([2]; single dose 30 mg/kg, 5 days after immunisation): Two

CCOCc1nc2c(N)nc3ccccc3c2n1CC(C)(C)O [Resiquimod, 1-(2-hydroxy-2-methylpropyl)-2-ethoxymethyl-1-H-imidazo[4,5-c]quinolin-4-amine]
increase of IFN-γ producing CD4 T cells ([1]; 1 mg/kg (apparently optimal dose), lymph node cells 5 days after immunisation): six | IFN-γ producing cells, in words [1]: increased | effect on IL-4 producing CD4 T cells ([2]; 1 mg/kg, lymph node cells 5 days after immunisation): only a modest effect | IL-4 producing cells, in words [2]: increased

CC(C)Cn1cnc2c(N)nc3ccccc3c21 [imiquimod, 1-(2-methylpropyl)-1H-imidazo[4,5-c]quinolin-4-amine]
cytotoxic T cells, control plasmid (pVAC1) + imiquimod versus vehicle ([3]; empty vector pVAC1, imiquimod 30 mg/kg s.c.): No difference | number of cytotoxic T cells in the spleens, pVAC1.PR + imiquimod versus pVAC1.PR + vehicle ([3]; imiquimod 30 mg/kg single s.c. injection at immunisation site, splenocytes one week later): 3 times | cytotoxic T-cell response following vaccination with pVAC1.PR (FIG. 1) ([3]; in words): increases | IFN-γ producing cells, in words [1]: increased | Th1/Th2 bias: increase of IFN-γ versus IL-4 producing cells ([1]; pVAC1.OVA + imiquimod, ELISPOT): more substantial for IFN-γ compared with IL-4 | IL-4 producing cells, in words [2]: increased | increase in cytotoxic T cells, imiquimod s.c. injection ([4]; 30 mg/kg s.c., 11 days after boost, versus plasmid with s.c. vehicle): approximately 2 fold | increase in cytotoxic T cells, imiquimod topically ([4]; 20 μl of 5% (w/v) cream (Aldara) at PMID site, 11 days after boost, versus plasmid with s.c. vehicle): approximately 2 fold | increase in cytotoxic T cells, Gag [4, 6]: 10 fold | increase in cytotoxic T cells, Nef [4, 6]: 100 fold | cytotoxic T-cell response following vaccination with WRG7077.Gag/Nef (FIG. 5) ([4]; in words): increases | cytotoxic T-cell response, topical application (FIG. 8) ([4]; in words): increases | growth of tumours (FIG. 9) ([5]; in words): delays | tumourigenicity of EG7.OVA tumour cells (FIG. 10) ([5]; in words): reduces | tumourigenicity ([5]; mice immunised with pVAC1.OVA + imiquimod 30 mg/kg s.c., 100,000 cells/mouse two weeks after boost): 25% | appearance of palpable tumours ([5]; pVAC1.OVA + imiquimod 30 mg/kg s.c. compared with pVAC1.OVA alone): most delayed
